For 28 molecules, T/C results are on record in PubChem BioAssay AID330 (DTP/NCI, 2004).

This assay concerns P388 leukemia ip, CD2F1 mice, survival T/C. Nature of the assay: NCI In Vivo Anticancer Drug Screen. Data for tumor model P388 Leukemia (intraperitoneal) in CD2F1 (CDF1) mice. The settings on record: endpoint: median survival time, higher = longer survival. A digest of the protocol:
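Mice carrying the transplanted tumor received test compound or vehicle. Survival was recorded in each group, and the value is the treated-group measurement divided by that of the vehicle-treated control group.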

The mark [1] stands for this setting: dose: 100.0 mg/kg/injection, schedule: Q01DX009 (ip), vehicle: saline.
Where [2] appears, read: dose: 200.0 mg/kg/injection, schedule: Q01DX009 (ip), vehicle: saline.
[3] abbreviates: dose: 50.0 mg/kg/injection, schedule: Q01DX009 (ip), vehicle: saline.
The mark [4] stands for this setting: dose: 50.0 mg/kg/injection, schedule: Q01DX005 (ip), vehicle: Klucel (hydroxypropylcellulose) (HPC).
Where [5] appears, read: dose: 100.0 mg/kg/injection, schedule: Q01DX005 (ip), vehicle: Klucel (hydroxypropylcellulose) (HPC).
The mark [6] stands for this setting: dose: 200.0 mg/kg/injection, schedule: Q01DX005 (ip), vehicle: Klucel (hydroxypropylcellulose) (HPC).
Setting [7] is: dose: 50.0 mg/kg/injection, schedule: Q01DX009 (ip), vehicle: Klucel (hydroxypropylcellulose) (HPC).
The mark [8] stands for this setting: dose: 100.0 mg/kg/injection, schedule: Q01DX009 (ip), vehicle: Klucel (hydroxypropylcellulose) (HPC).
Where [9] appears, read: dose: 200.0 mg/kg/injection, schedule: Q01DX009 (ip), vehicle: Klucel (hydroxypropylcellulose) (HPC).
Where [10] appears, read: dose: 12.5 mg/kg/injection, schedule: Q04DX003 (ip), vehicle: saline.
[11] abbreviates: dose: 25.0 mg/kg/injection, schedule: Q04DX003 (ip), vehicle: saline.
Setting [12] is: dose: 50.0 mg/kg/injection, schedule: Q04DX003 (ip), vehicle: saline.

Several values for one entry are separate records, joined by “and”; a condition that tells them apart may be missing. Equal entries are not always repeated. Toxic doses and inconclusive results are not listed.

In the case of `Cc1oc2ccccc2c(=O)c1CN1CCOCC1`, the T/C (dose: 60.0 mg/kg/injection, schedule: Q01DX005 (ip), vehicle: saline) was 101 % of control and the T/C (dose: 120.0 mg/kg/injection, schedule: Q01DX005 (ip), vehicle: saline) is 103 % of control.
On to `N#CC(C(=O)C(=O)NC1C2CC3CC(C2)CC1C3)c1c(Cl)cccc1Cl` (centres undefined), for which the T/C was 104 % of control (dose: 60.0 mg/kg/injection, schedule: Q01DX005 (ip), vehicle: saline with Tween-80); 106 % of control (dose: 120.0 mg/kg/injection, schedule: Q01DX005 (ip), vehicle: saline with Tween-80); 100 % of control (dose: 240.0 mg/kg/injection, schedule: Q01DX005 (ip), vehicle: saline with Tween-80).
For the molecule `CCCOP(=S)(N1CC1(C)C)N1CC1(C)C` (centres undefined), the T/C was 104 % of control (dose: 12.5 mg/kg/injection, schedule: Q01DX009 (ip), vehicle: saline with Tween-80); 113 % of control (dose: 25.0 mg/kg/injection, schedule: Q01DX009 (ip), vehicle: saline with Tween-80); 155 % of control (dose: 150.0 mg/kg/injection, schedule: Q01DX009 (ip), vehicle: saline with Tween-80).
`O=C(O)c1ccc(=O)[nH]c1`: the T/C by setting is: under setting [1], 101 % of control and 107 % of control; under setting [2], 110 % of control and 118 % of control; (dose: 400.0 mg/kg/injection, schedule: Q01DX009 (ip), vehicle: saline) 100 % of control and 109 % of control; (dose: 600.0 mg/kg/injection, schedule: Q01DX009 (ip), vehicle: saline) 104 % of control and 106 % of control.
For the molecule `Cc1ncc(-c2ccccc2)c(N)n1`, the T/C was 91 % of control under setting [3], 92 % of control under setting [1] and 102 % of control under setting [2].
With `CCOP(=S)(N/N=C/c1ccc(Br)s1)OCC`, the T/C was 101 % of control under setting [4], 106 % of control under setting [5] and 104 % of control under setting [6].
For `CC(C)CCC1(CCCl)C(=O)NC(=O)NC1=O`, the T/C was 102 % of control under setting [4] and 106 % of control under setting [5].
Consider `CCCCCCCCCCCCCCCCC[CH2][Sn](=[O])[OH]`, for which the T/C by setting is: under setting [3], 111 % of control; under setting [1], 113 % of control; under setting [2], 114 % of control.
With `O=[N+]([O-])c1cnc[nH]1`, the T/C was 105 % of control (dose: 25.0 mg/kg/injection, schedule: Q01DX009 (ip), vehicle: Klucel (hydroxypropylcellulose) (HPC)); 100 % of control and 101 % of control under setting [7]; 100 % of control and 105 % of control under setting [8]; 99 % of control and 100 % of control under setting [9]; 95 % of control (dose: 360.0 mg/kg/injection, schedule: Q01DX001 (ip), vehicle: saline with Tween-80); 100 % of control and 92 % of control (dose: 600.0 mg/kg/injection, schedule: Q01DX001 (ip), vehicle: saline with Tween-80). The T/C (dose: 1000.0 mg/kg/injection, schedule: Q01DX001 (ip), vehicle: saline with Tween-80) is 99 % of control and 106 % of control.
Regarding `CCOC(=O)Nc1nn(-c2ccccn2)c(=O)[nH]1`, the T/C is, setting by setting: (dose: 50.0 mg/kg/injection, schedule: Q01DX005 (ip), vehicle: distilled water + alcohol) 107 % of control; (dose: 100.0 mg/kg/injection, schedule: Q01DX005 (ip), vehicle: distilled water + alcohol) 101 % of control; (dose: 200.0 mg/kg/injection, schedule: Q01DX005 (ip), vehicle: distilled water + alcohol) 99 % of control.
With `O=C(Nc1ccc(C2=NCCN2)cc1)c1cc2ccc(C3=NCCN3)cc2[nH]1`, the T/C under setting [10] is 101 % of control, the T/C under setting [11] is 112 % of control and the T/C under setting [12] was 118 % of control.
Consider `COc1ccc2ccccc2c1/C=[N+](/[O-])c1ccccc1`, for which the T/C (dose: 60.0 mg/kg/injection, schedule: Q01DX005 (ip), vehicle: Klucel (hydroxypropylcellulose) (HPC)) was 109 % of control; the T/C (dose: 120.0 mg/kg/injection, schedule: Q01DX005 (ip), vehicle: Klucel (hydroxypropylcellulose) (HPC)) is 110 % of control; the T/C (dose: 240.0 mg/kg/injection, schedule: Q01DX005 (ip), vehicle: Klucel (hydroxypropylcellulose) (HPC)) is 112 % of control.
Take `CC1(C)C(C)(C)C1(Cl)S(C)(=O)=O`: the T/C is, setting by setting: (dose: 100.0 mg/kg/injection, schedule: Q04DX003 (ip), vehicle: saline with Tween-80) 101 % of control; (dose: 200.0 mg/kg/injection, schedule: Q04DX003 (ip), vehicle: saline with Tween-80) 106 % of control; (dose: 400.0 mg/kg/injection, schedule: Q04DX003 (ip), vehicle: saline with Tween-80) 106 % of control.
`C=CCNC(=S)N/N=C(/c1ccccn1)C(C)C`: the T/C (dose: 50.0 mg/kg/injection, schedule: Q01DX005 (ip), vehicle: saline with Tween-80) is 103 % of control and the T/C (dose: 100.0 mg/kg/injection, schedule: Q01DX005 (ip), vehicle: saline with Tween-80) was 109 % of control.
On to `O=c1nc(Oc2ccc([N+](=O)[O-])cc2)nc2ccccn12`, for which the T/C is 99 % of control under setting [7], 87 % of control under setting [8] and 87 % of control under setting [9].
Take `Cc1ccc(C2C(C#N)C(=O)NC(=O)C2C#N)cc1` (centres undefined): the T/C is, setting by setting: under setting [7], 100 % of control; under setting [8], 108 % of control; under setting [9], 99 % of control.
On to `CCC1(c2ccc(-c3ccccc3)cc2)OC(OC(=O)NC)C=CC1=O` (centres undefined), for which the T/C (dose: 6.25 mg/kg/injection, schedule: Q01DX009 (ip), vehicle: Klucel (hydroxypropylcellulose) (HPC)) is 98 % of control.
Regarding `COc1cc(C)c(OC)c(C/C=C(\C)CC2(O)C[C@@]3(C)CCC[C@@]3(C)C(=O)C2CC(C)(C)O)c1` (some centres undefined), the T/C runs as follows: (dose: 5.0 mg/kg/injection, schedule: Q01DX005 (ip), vehicle: saline with Tween-80) 92 % of control; (dose: 10.0 mg/kg/injection, schedule: Q01DX005 (ip), vehicle: saline with Tween-80) 95 % of control; (dose: 20.0 mg/kg/injection, schedule: Q01DX005 (ip), vehicle: saline with Tween-80) 93 % of control.
Take `Fc1ccccc1CN1COc2c(cc(Cl)c3cccnc23)C1`: the T/C was 93 % of control (dose: 100.0 mg/kg/injection, schedule: Q04DX003 (ip), vehicle: Klucel (hydroxypropylcellulose) (HPC)); 100 % of control (dose: 200.0 mg/kg/injection, schedule: Q04DX003 (ip), vehicle: Klucel (hydroxypropylcellulose) (HPC)); 97 % of control (dose: 400.0 mg/kg/injection, schedule: Q04DX003 (ip), vehicle: Klucel (hydroxypropylcellulose) (HPC)).
With `BrC1c2ccccc2-c2nc3ccccc3nc21` (centres undefined), the T/C by setting is: (dose: 12.5 mg/kg/injection, schedule: Q01DX005 (ip), vehicle: Klucel (hydroxypropylcellulose) (HPC)) 112 % of control; (dose: 25.0 mg/kg/injection, schedule: Q01DX005 (ip), vehicle: Klucel (hydroxypropylcellulose) (HPC)) 99 % of control; under setting [4], 103 % of control and 115 % of control.
In the case of `O=Cc1ccc(O)c(CN2CCCCC2)c1`, the T/C was 109 % of control (dose: 6.25 mg/kg/injection, schedule: Q04DX003 (ip), vehicle: saline); 100 % of control under setting [10]; 100 % of control under setting [11].
Turning to `Cc1ccc(S(=O)(=O)C(Cl)(SCl)Sc2ccccc2)cc1` (centres undefined), the T/C under setting [7] was 95 % of control, the T/C under setting [8] was 93 % of control and the T/C under setting [9] was 93 % of control.
On to `C[CH2][Ge]([CH2]C)[CH2]C.C[CH2][Ge]([CH2]C)[O]C(C)=O`, for which the T/C is 95 % of control under setting [3], 98 % of control under setting [1] and 96 % of control under setting [2].
In the case of `O=C1CSCc2nc3ccccc3n21`, the T/C reads like this: (dose: 100.0 mg/kg/injection, schedule: Q01DX001 (ip), vehicle: saline) 95 % of control; under setting [1], 103 % of control; (dose: 200.0 mg/kg/injection, schedule: Q01DX001 (ip), vehicle: saline) 104 % of control; under setting [2], 103 % of control; (dose: 400.0 mg/kg/injection, schedule: Q01DX001 (ip), vehicle: saline) 104 % of control.
Consider `COc1ccc(C(=O)NC[n+]2ccccc2)cc1`, for which the T/C is 100 % of control under setting [11]; 100 % of control under setting [12]; 104 % of control (dose: 100.0 mg/kg/injection, schedule: Q04DX003 (ip), vehicle: saline).
In the case of `C/C=C(\NN=NC)c1ccccc1`, for the setting “dose: 200.0 mg/kg/injection, schedule: Q04DX002 (ip), vehicle: saline with Tween-80”, the T/C is 166 % of control.
For `CNc1c[nH]c(=O)[nH]c1=O`, the T/C under setting [4] was 108 % of control, the T/C under setting [5] is 105 % of control and the T/C under setting [6] was 96 % of control.
`CC(=O)OC1C(C)C2CCC13CC=C(C)CC23` (centres undefined): the T/C reads like this: under setting [4], 101 % of control; under setting [5], 108 % of control; under setting [6], 110 % of control.
